Laboratory results: patent US10266564B2, “Cationic lipid cordiarimide hybrid compounds and a process for preparation thereof” (COUNCIL OF SCIENTIFIC & INDUSTRIAL RESEARCH, priority 2014, dated 2019)

Tests used:
[1] = system: mouse embryo fibroblasts (NIH/3T3); assay: MTT assay for cell viability, NIH/3T3; assay type: cell-based; conditions: NIH3T3, 48 h
Experimental: (§1) The human cancer cell lines e.g. HepG2 (hepatocellular carcinoma, ATCC® HB-8065™), PC-3 (human prostate cancer cells, ATCC® CRL-1435™), MCF-7 (breast adenocarcinoma, ATCC® […]), and mouse embryo fibroblasts (NIH/3T3, ATCC® CRL-1658™), used in the present study were obtained from the ATCC (American Type Culture Collection, USA and maintained in RPMI 1640 (Roswell Park Memorial Institute, Merck) with 10% FBS (Merck), supplemented with 1% antibiotic and antimycotic solution (Gibco, USA) at 37° C. in a humidified incubator with 5% CO2. All stock solutions of the compounds were prepared in cell culture grade DMSO (dimethyl sulfoxide) and stored at −20° C. Compounds were diluted in culture media prior to use in experiments. Annexin V-FITC apoptosis detection kits were purchased from Calbiochem. MTT dye was procured from Sigma-Aldrich. All the flow cytometry experiments were performed using a FACScan (Becton Dickinson, Mountain View, Calif.) flow cytometer, equipped with a single 488 nm argon laser.
(§2) Cell viability was assessed by MTT assay, which is based on the reduction of MTT by mitochondrial dehydrogenases of viable cells to form a purple formazan product. Briefly, cells (5-6×10^3/well) were plated in 96 well plates. After incubating overnight, the cells were treated with […] different concentrations (100, 50, 20, 10, 5, 2.5, 1.25 μM) in triplicates with the cationic lipidated cordiarimide and intermediates for 48 h. Subsequently, 10 μL of MTT (10 mg/mL) was added to each well and incubated for 3 h. The MTT formazan formed by viable cells was dissolved in 100 μL of DMSO and shaken for 10 min. The absorbance was measured on an ELISA reader. Each test was repeated at least three times. The concentration of the compound which gives the 50% growth inhibition value corresponding to IC50, was calculated using GraphPad prism 5 software. In the present invention we have screened 26 lipidated cordiarimides and the results are described in table 1.

[2] = system: PC-3 (human prostate cancer cells); assay: MTT assay for cell viability, PC-3; assay type: cell-based; conditions: 48 h
Experimental: as §1, §2

[3] = system: linearized plasmid pUC18 DNA; assay: DNA intercalation assay; assay type: binding; conditions: up to 100 μM, compared to doxorubicin
Experimental: Since there are multiple modes of inhibition of ligase activity, we wanted to determine whether 8k inhibited ligation by direct inhibition alone or through other means as well such as DNA intercalation. DNA intercalation assay was performed as described by Furlan et al., Biotechnol. Lett. 2002, 24, 1807-1813. We incubated 100 ng of linearized plasmid pUC18 DNA with increasing concentrations (50, 100, 200 μM) of Doxorubicin (positive control), ampicillin (negative control), and 8k for 30 minutes at 37° C. Reaction products were resolved on a 1% agarose gel at 5.3 V/cm. Gel was visualized by ethidium bromide staining.

ligase IIIβ = target: T1, ligase IIIβ (Homo sapiens, UniProt P49916); assay: Ligation assay, DNA ligase IIIβ; assay type: biochemical
T1 sequence (P49916 43-949 isoform P49916-2 limits assumed): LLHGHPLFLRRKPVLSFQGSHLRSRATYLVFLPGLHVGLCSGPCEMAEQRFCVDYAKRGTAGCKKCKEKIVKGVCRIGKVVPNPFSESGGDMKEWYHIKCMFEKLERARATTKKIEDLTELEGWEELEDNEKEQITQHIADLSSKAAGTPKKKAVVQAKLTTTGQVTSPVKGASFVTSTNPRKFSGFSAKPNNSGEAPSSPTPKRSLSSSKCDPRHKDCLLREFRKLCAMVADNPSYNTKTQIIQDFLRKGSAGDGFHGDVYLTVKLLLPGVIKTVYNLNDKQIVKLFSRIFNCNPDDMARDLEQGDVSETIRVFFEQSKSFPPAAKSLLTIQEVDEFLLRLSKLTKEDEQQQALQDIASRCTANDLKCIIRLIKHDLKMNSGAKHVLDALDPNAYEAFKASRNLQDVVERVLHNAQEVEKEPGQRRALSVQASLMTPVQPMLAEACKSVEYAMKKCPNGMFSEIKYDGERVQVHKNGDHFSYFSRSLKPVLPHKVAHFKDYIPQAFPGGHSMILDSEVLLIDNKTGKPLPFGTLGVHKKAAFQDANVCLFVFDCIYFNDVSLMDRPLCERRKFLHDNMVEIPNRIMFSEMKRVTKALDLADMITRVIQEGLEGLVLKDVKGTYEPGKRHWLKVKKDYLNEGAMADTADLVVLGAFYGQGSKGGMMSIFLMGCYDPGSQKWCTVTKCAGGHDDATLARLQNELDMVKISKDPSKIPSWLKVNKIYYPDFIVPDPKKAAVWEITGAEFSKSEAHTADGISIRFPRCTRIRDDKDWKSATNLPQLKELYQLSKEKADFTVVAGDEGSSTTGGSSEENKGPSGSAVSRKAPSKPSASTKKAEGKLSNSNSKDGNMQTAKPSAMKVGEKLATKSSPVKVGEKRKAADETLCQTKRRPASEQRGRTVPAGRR
Description: The ligation assay was done strictly following the assay protocol described in Xi Chen et. al, Cancer Res 2008; 68(9):3169-3177. The DNA molecules 52 mer (5′-3′), 28-mer (5′-3′) and 34-mer (5′-3′) were used to construct a double stranded nicked substrate for the ligase enzyme (FIG. 4). The 34-mer oligo was labelled with 32P-AMP to form a substrate for ligase and to form a ligase-AMP intermediate. During ligation, the ligase would transfer the AMP to the nick forming a phosphodiester bond and seal the nick. The ligated DNA molecule would be larger in size and run higher up on a 7% Urea-containing denaturing acrylamide gel. If an inhibitor is added to the reaction mixture prior to the addition of ligase, this would lead to an inhibition of ligation and a corresponding loss of labelled ligated product in the gel. We would then be able to calculate the percentage of inhibition of ligation by estimating the amount of ligated product in the lane with no inhibitor and comparing it with the lanes containing different inhibitor molecules or with the same inhibitor molecule at different concentrations.

How did the IC50 [1] turn out when `CCCCCCCCCCCC[N+](C)(CCCCCCCCCCCC)CC(=O)NC1CCC(=O)N(CC(=O)c2ccccc2)C1=O` (stereo not drawn) [Compound 8k, {[2,6-Dioxo-1-(2-oxo-2-phenyl-ethyl)-piperidin-3-ylcarbamoyl]-methyl}-Didodecyl-methyl-ammonium iodide] was run?
The IC50 was > 20 µM.

What about the IC50 [2] of the same compound?
The IC50 was 5.61 µM.

And the IC50 ([2]; Homo sapiens)?
The IC50 was 5.6 µM.

What about the DNA intercalation [3] of the same compound?
The DNA intercalation was “no appreciable intercalation”.

And the inhibition at 5 µM (ligase IIIβ; 5 μM)?
The inhibition at 5 µM was < 50%.

What about the “ligase III inhibition” value (ligase IIIβ; at concentrations that kill HepG2 cells) of the same compound?
Its value is 30%.
